In patent publication US10308643B2, “Heterocyclic compound” (Takeda Pharmaceutical Company Limited, priority 2015, dated 2019):

Assays:
[1] = biological target: T1, HDAC9 enzyme (Homo sapiens, UniProt Q9UKV0); assay: HDAC9 Enzyme Inhibitory Assay (HDAC-Glo class IIa); assay type: biochemical; conditions: 1 μM test compound; wells without enzyme = 100% inhibition; read-out: HDAC9 inhibitory rate (%) (1 μM)
T1 construct: transducing full length HDAC9 gene into Sf-9 insect cells; made in house; host or cells: Sf-9 insect cells
Procedure, shortened: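 Full-length human HDAC9 from Sf-9 cells, Ni-NTA purified, preincubated with compound for 60 min at room temperature in Tris-HCl pH 7.5 buffer (MgCl2, KCl, NaCl, glutathione, Tween-20). HDAC-Glo class IIa substrate-developer added; luminescence read after 20 min, with no-enzyme wells defining 100% inhibition.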

[2] = biological target: T2, HDAC1 enzyme (Homo sapiens, UniProt Q13547); assay: HDAC1/6 Enzyme Inhibitory Assay (HDAC-Glo I/II Assay kit), HDAC1; assay type: biochemical; conditions: 1 μM test compound; wells without enzyme = 100% inhibition; read-out: HDAC1 inhibitory rate (%) (1 μM)
T2 construct: transducing full length HDAC1 and HDAC6 genes into Sf-9 insect cells; GST; purchased SignalChem; host or cells: Sf-9 insect cells
Procedure, shortened: (§1)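 Full-length human HDAC1 or HDAC6, expressed in Sf-9 cells and GST-purified, was preincubated with compound for 60 min at room temperature in Tris-HCl pH 7.5 buffer with MgCl2, KCl, NaCl, glutathione and Tween-20. HDAC-Glo substrate-developer was then added, and luminescence was read after 20 min. Inhibition was referenced to no-enzyme wells as 100%.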

[3] = biological target: T3, HDAC6 enzyme (Homo sapiens, UniProt Q9UBN7); assay: HDAC1/6 Enzyme Inhibitory Assay (HDAC-Glo I/II Assay kit), HDAC6; assay type: biochemical; conditions: 1 μM test compound; wells without enzyme = 100% inhibition; read-out: HDAC6 inhibitory rate (%) (1 μM)
T3 construct: transducing full length HDAC1 and HDAC6 genes into Sf-9 insect cells; GST; purchased SignalChem; host or cells: Sf-9 insect cells
T3 sequence (Q9UBN7 1-1215): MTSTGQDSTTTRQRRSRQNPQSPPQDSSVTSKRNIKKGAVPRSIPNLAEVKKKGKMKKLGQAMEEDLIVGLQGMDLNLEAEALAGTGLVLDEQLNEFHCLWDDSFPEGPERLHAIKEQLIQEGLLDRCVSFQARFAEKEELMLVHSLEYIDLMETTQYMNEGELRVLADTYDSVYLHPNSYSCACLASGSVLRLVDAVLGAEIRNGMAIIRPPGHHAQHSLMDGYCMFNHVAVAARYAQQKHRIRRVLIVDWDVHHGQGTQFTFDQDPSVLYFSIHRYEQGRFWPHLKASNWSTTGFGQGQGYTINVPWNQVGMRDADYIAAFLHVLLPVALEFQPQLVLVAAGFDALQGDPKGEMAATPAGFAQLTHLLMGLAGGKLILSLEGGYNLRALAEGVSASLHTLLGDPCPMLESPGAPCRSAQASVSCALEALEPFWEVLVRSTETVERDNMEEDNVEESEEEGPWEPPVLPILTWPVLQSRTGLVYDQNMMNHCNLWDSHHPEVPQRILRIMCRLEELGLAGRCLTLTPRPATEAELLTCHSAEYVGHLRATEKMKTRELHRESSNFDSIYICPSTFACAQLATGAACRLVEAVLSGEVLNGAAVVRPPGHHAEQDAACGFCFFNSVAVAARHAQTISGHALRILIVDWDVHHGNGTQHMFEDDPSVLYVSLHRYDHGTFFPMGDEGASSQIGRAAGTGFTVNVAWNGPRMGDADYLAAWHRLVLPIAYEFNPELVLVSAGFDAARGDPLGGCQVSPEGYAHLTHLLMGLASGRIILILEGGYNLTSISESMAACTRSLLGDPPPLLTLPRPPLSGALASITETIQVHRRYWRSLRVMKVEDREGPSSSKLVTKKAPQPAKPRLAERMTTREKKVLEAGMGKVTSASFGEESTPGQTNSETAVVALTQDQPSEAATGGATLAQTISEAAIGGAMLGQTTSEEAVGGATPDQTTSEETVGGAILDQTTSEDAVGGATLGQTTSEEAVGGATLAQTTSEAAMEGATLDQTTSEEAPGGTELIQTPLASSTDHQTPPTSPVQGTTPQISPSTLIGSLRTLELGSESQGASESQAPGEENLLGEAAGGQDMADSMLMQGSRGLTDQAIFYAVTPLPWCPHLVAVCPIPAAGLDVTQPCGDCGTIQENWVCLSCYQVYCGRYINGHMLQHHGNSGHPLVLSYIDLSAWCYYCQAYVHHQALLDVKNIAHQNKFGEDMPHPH
Procedure, shortened: as §1

T1 sequence (Q9UKV0 whole entry, species assumed): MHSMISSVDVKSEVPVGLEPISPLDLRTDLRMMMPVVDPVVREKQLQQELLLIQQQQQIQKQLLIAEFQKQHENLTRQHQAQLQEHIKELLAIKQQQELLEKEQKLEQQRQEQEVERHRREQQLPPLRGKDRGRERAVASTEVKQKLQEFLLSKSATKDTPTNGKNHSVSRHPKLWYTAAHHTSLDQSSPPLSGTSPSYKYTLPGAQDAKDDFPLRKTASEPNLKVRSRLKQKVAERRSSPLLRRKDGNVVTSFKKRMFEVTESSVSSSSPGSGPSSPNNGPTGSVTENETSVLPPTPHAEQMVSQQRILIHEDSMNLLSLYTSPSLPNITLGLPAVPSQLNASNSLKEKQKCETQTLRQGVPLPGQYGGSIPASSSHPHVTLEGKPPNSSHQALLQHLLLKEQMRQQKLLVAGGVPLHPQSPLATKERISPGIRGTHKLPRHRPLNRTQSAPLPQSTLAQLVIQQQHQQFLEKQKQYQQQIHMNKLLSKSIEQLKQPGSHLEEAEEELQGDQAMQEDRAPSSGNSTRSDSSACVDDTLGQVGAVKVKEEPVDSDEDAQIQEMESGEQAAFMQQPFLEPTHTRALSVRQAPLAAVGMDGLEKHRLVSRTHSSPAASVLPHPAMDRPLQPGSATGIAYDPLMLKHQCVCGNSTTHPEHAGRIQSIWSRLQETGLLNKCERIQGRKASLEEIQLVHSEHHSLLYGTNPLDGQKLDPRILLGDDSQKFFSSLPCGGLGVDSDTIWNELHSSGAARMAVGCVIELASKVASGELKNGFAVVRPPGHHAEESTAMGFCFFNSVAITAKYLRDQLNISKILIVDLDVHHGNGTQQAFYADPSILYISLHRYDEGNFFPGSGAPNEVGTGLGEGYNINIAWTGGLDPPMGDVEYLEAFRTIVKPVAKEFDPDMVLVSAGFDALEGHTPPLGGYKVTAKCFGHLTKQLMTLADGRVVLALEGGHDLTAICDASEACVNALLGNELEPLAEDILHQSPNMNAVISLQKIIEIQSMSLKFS
T2 sequence (Q13547 whole entry): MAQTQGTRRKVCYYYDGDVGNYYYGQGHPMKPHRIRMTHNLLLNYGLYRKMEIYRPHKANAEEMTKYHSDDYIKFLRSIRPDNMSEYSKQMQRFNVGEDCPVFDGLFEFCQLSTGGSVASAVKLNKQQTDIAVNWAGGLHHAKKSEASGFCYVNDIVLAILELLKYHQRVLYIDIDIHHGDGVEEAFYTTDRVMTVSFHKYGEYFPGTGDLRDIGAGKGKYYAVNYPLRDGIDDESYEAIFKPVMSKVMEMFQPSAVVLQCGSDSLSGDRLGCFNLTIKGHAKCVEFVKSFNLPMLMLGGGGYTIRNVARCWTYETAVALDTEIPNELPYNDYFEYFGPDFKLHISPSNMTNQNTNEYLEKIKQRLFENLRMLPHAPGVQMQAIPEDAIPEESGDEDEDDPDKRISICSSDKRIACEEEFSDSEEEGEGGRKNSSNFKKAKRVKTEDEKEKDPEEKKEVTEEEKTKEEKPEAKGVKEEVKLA

Compound | inhibition at 1 µM [1] [%] | inhibition at 1 µM [2] [%] | inhibition at 1 µM [3] [%] | melting point [°C]
O=C(N[C@@H]1CCCC[C@H]1N1Cc2ccc(-c3noc(C(F)(F)F)n3)cc2C1=O)[C@@H]1CCCO1 [Example 90, (2S)-N-((1R,2R)-2-(1-oxo-6-(5-(trifluoromethyl)-1,2,4-oxadiazol-3-yl)-1,3-dihydro-2H-isoindol-2-yl)cyclohexyl)tetrahydrofuran-2-carboxamide] | 37 | 5 | 97 | 132
CN1CC(C)(C(=O)N[C@@H]2CCCC[C@H]2N2Cc3ccc(-c4noc(C(F)(F)F)n4)cc3C2=O)C1 [Example 196, 1,3-dimethyl-N-((1R,2R)-2-(1-oxo-6-(5-(trifluoromethyl)-1,2,4-oxadiazol-3-yl)-1,3-dihydro-2H-isoindol-2-yl)cyclohexyl)azetidine-3-carboxamide] | 22 | 4 | 101 | 
CC(C)(C)OC(=O)N1CC(C)(C(=O)N[C@@H]2CCCC[C@H]2N2Cc3ccc(-c4noc(C(F)(F)F)n4)cc3C2=O)C1 [Example 197, tert-butyl 3-methyl-3-(((1R,2R)-2-(1-oxo-6-(5-(trifluoromethyl)-1,2,4-oxadiazol-3-yl)-1,3-dihydro-2H-isoindol-2-yl)cyclohexyl)carbamoyl)azetidine-1-carboxylate] | 48 | 6 | 100 | 
O=C(N[C@H]1CCOC[C@@H]1N1Cc2ccc(-c3noc(C(F)(F)F)n3)cc2C1=O)[C@@H]1CC1(F)F [Example 201, (1S)-2,2-difluoro-N-((3R,4S)-3-(1-oxo-6-(5-(trifluoromethyl)-1,2,4-oxadiazol-3-yl)-1,3-dihydro-2H-isoindol-2-yl)tetrahydro-2H-pyran-4-yl)cyclopropanecarboxamide] | 86 | 16 | 98 | 
O=C(N[C@H]1CCOC[C@@H]1N1Cc2ccc(-c3noc(C(F)(F)F)n3)cc2C1=O)[C@H]1CC1(F)F [Example 202, (1R)-2,2-difluoro-N-((3R,4S)-3-(1-oxo-6-(5-(trifluoromethyl)-1,2,4-oxadiazol-3-yl)-1,3-dihydro-2H-isoindol-2-yl)tetrahydro-2H-pyran-4-yl)cyclopropanecarboxamide] | 59 | 13 | 99 | 
O=C(N[C@@H]1CCOC[C@H]1N1Cc2ccc(-c3noc(C(F)(F)F)n3)cc2C1=O)C1CCOC1 (stereo partly drawn) [Example 205, N-((3S,4R)-3-(1-oxo-6-(5-(trifluoromethyl)-1,2,4-oxadiazol-3-yl)-1,3-dihydro-2H-isoindol-2-yl)tetrahydro-2H-pyran-4-yl)tetrahydrofuran-3-carboxamide] | 52 | 5 | 99 | 
O=C(N[C@@H]1CCOC[C@H]1N1Cc2ccc(-c3noc(C(F)(F)F)n3)cc2C1=O)[C@@H]1CCOC1 [Example 206, (3R)-N-((3S,4R)-3-(1-oxo-6-(5-(trifluoromethyl)-1,2,4-oxadiazol-3-yl)-1,3-dihydro-2H-isoindol-2-yl)tetrahydro-2H-pyran-4-yl)tetrahydrofuran-3-carboxamide] | 52 | 5 | 97 | 
O=C(N[C@@H]1CCOC[C@H]1N1Cc2ccc(-c3noc(C(F)(F)F)n3)cc2C1=O)[C@H]1CCOC1 [Example 208, (3S)-N-((3S,4R)-3-(1-oxo-6-(5-(trifluoromethyl)-1,2,4-oxadiazol-3-yl)-1,3-dihydro-2H-isoindol-2-yl)tetrahydro-2H-pyran-4-yl)tetrahydrofuran-3-carboxamide] | 53 | 4 | 98 | 
O=C(N[C@H]1CCOC[C@@H]1N1Cc2ccc(-c3noc(C(F)(F)F)n3)cc2C1=O)[C@@H]1CCOC1 [Example 209, (3R)-N-((3R,4S)-3-(1-oxo-6-(5-(trifluoromethyl)-1,2,4-oxadiazol-3-yl)-1,3-dihydro-2H-isoindol-2-yl)tetrahydro-2H-pyran-4-yl)tetrahydrofuran-3-carboxamide] | 51 | 13 | 48 | 
O=C(N[C@H]1CCOC[C@@H]1N1Cc2ccc(-c3noc(C(F)(F)F)n3)cc2C1=O)[C@H]1CCOC1 [Example 210, (3S)-N-((3R,4S)-3-(1-oxo-6-(5-(trifluoromethyl)-1,2,4-oxadiazol-3-yl)-1,3-dihydro-2H-isoindol-2-yl)tetrahydro-2H-pyran-4-yl)tetrahydrofuran-3-carboxamide] | 56 | 10 | 55 | 
O=C(N[C@H]1CCCC[C@@H]1N1Cc2ccc(-c3noc(C(F)(F)F)n3)cc2C1=O)[C@@H]1CCCO1 [Example 217, (2S)-N-((1S,2S)-2-(1-oxo-6-(5-(trifluoromethyl)-1,2,4-oxadiazol-3-yl)-1,3-dihydro-2H-isoindol-2-yl)cyclohexyl)tetrahydrofuran-2-carboxamide] | 53 | 21 | 82 | 
O=C(N[C@H]1CCCC[C@@H]1N1Cc2ccc(-c3noc(C(F)(F)F)n3)cc2C1=O)[C@H]1CCCO1 [Example 218, (2R)-N-((1S,2S)-2-(1-oxo-6-(5-(trifluoromethyl)-1,2,4-oxadiazol-3-yl)-1,3-dihydro-2H-isoindol-2-yl)cyclohexyl)tetrahydrofuran-2-carboxamide] | 29 | 5 | 44 | 
CC(C)(O)C(=O)N[C@H]1CCCC[C@@H]1N1Cc2ccc(-c3noc(C(F)(F)F)n3)cc2C1=O [Example 219, 2-hydroxy-2-methyl-N-((1S,2S)-2-(1-oxo-6-(5-(trifluoromethyl)-1,2,4-oxadiazol-3-yl)-1,3-dihydro-2H-isoindol-2-yl)cyclohexyl)propanamide] | 50 | 5 | 40 | 
O=C(N[C@H]1COCC[C@@H]1N1Cc2ccc(-c3noc(C(F)(F)F)n3)cc2C1=O)[C@@H]1CC1(F)F [Example 220, (1S)-2,2-difluoro-N-((3R,4S)-4-(1-oxo-6-(5-(trifluoromethyl)-1,2,4-oxadiazol-3-yl)-1,3-dihydro-2H-isoindol-2-yl)tetrahydro-2H-pyran-3-yl)cyclopropanecarboxamide] | 65 | 23 | 84 | 
O=C(N[C@H]1COCC[C@@H]1N1Cc2ccc(-c3noc(C(F)(F)F)n3)cc2C1=O)[C@H]1CC1(F)F [Example 221, (1R)-2,2-difluoro-N-((3R,4S)-4-(1-oxo-6-(5-(trifluoromethyl)-1,2,4-oxadiazol-3-yl)-1,3-dihydro-2H-isoindol-2-yl)tetrahydro-2H-pyran-3-yl)cyclopropanecarboxamide] | 86 | 34 | 90 | 
